Patent US9200001B2, “Triazolyl PDE10 inhibitors” (Merck Sharp & Dohme Corp., priority 2011, dated 2015)

The molecules below were run against human PDE10A2 (Homo sapiens (Human), UniProt Q9Y233) (assay: PDE10 fluorescence polarization (IMAP FP) inhibition assay). Details: FAM-labeled cAMP 50 nM, room temperature, read-out: PDE10a Ki.
Assay type: biochemical
Description: The activity of the compounds in accordance with the present invention as PDE10 inhibitors may be readily determined without undue experimentation using a fluorescence polarization (FP) methodology that is well known in the art (Huang, W., et al., J. Biomol Screen, 2002, 7: 215).
In a typical experiment the PDE10 inhibitory activity of the compounds of the present invention was determined in accordance with the following experimental method. PDE10A2 was amplified from human fetal brain cDNA (Clontech, Mountain View, Calif.) using a forward primer corresponding to nucleotides 56-77 of human PDE10A2 (Accession No. AF127480, Genbank Identifier 4894716), containing a Kozak consensus sequence, and a reverse primer corresponding to nucleotides 2406-2413 of human PDE10A2 (Accession No. AF127480, Genbank Identifier 4894716). Amplification with Easy-A polymerase (Stratagene, La Jolla, Calif.) was 95° C. for 2 minutes followed by thirty three cycles of 95° C. for 40 seconds, 55° C. for 30 seconds, and 72° C. for 2 minutes 48 seconds. Final extension was 72° C. for 7 minutes. The PCR product was TA cloned into pcDNA3.2-TOPO (Invitrogen, Carlsbad, Calif.) according to standard protocol. AD293 cells with 70-80% confluency were transiently transfected with human PDE10A2/pcDNA3.2-TOPO using Lipofectamine 2000 according to manufacturer specifications (Invitrogen, Carlsbad, Calif.). Cells were harvested 48 hours post-transfection and lysed by sonication (setting 3, 10×5 sec pulses) in a buffer containing 20 mM HEPES, 1 mM EDTA and protease inhibitor cocktail (Roche). Lysate was collected by centrifugation at 75,000×g for 20 minutes. Supernatant containing the cytoplasmic fraction was used for evaluation of PDE10A2 activity. The fluorescence polarization assay for cyclic nucleotide phosphodiesterases was performed using an IMAP® FP kit supplied by Molecular Devices, Sunnyvale, Calif. (product # R8139). IMAP® technology has been applied previously to phosphodiesterase assays (Huang, W., et al., J. Biomol Screen, 2002, 7: 215). Assays were performed at room temperature in 384-well microtiter plates with an incubation volume of 20.2 μL. Solutions of test compounds were prepared in DMSO and serially diluted with DMSO to yield 8 μL of each of 10 solutions differing by 3-fold in concentration, at 32 serial dilutions per plate. 100% inhibition is determined using a known PDE10 inhibitor, which can be any compound that is present at 5,000 times its Ki value in the assay described as follows, such as papaverine (see Siuciak, et al. Neuropharmacology (2006) 51:386-396; Becker, et al. Behav Brain Res (2008) 186(2):155-60; Threlfell, et al., J Pharmacol Exp Ther (2009) 328(3):785-795), 2-{4-[pyridin-4-yl-1-(2,2,2-trifluoroethyl)-1H-pyrazol-3-yl]phenoxymethyl}quinoline succinic acid or 2-[4-(1-methyl-4-pyridin-4-yl-1H-pyrazol-3-yl)-phenoxymethyl]quinoline succinic acid (see Schmidt, et al. J Pharmacol Exp Ther (2008) 325:681-690; Threlfall, et al., J Pharmacol Exp Ther (2009) 328(3): 785-795). 0% of inhibition is determined by using DMSO (1% final concentrations).
A Labcyte Echo 555 (Labcyte, Sunnyvale, Calif.) is used to dispense 200 nL from each well of the titration plate to the 384 well assay plate. A solution of enzyme (1/1600 dilution from aliquots; sufficient to produce 20% substrate conversion) and a separate solution of FAM-labeled cAMP PDE from Molecular Devices (product # R7506), at a final concentration of 50 nM are made in the assay buffer (10 mM Tris HCl, pH 7.2, 10 mM MgCl2, 0.05% NaN3 0.01% Tween-20, and 1 mM DTT). The enzyme and the substrate are then added to the assay plates in two consecutive additions of 10 μL, and then shaken to mix. The reaction is allowed to proceed at room temperature for 30 minutes. A binding solution is then made from the kit components, comprised of 80% Solution A, 20% Solution B and binding reagent at a volume of 1600 the total binding solution. […]

human PDE10A2, sequence (Q9Y233 267-1055): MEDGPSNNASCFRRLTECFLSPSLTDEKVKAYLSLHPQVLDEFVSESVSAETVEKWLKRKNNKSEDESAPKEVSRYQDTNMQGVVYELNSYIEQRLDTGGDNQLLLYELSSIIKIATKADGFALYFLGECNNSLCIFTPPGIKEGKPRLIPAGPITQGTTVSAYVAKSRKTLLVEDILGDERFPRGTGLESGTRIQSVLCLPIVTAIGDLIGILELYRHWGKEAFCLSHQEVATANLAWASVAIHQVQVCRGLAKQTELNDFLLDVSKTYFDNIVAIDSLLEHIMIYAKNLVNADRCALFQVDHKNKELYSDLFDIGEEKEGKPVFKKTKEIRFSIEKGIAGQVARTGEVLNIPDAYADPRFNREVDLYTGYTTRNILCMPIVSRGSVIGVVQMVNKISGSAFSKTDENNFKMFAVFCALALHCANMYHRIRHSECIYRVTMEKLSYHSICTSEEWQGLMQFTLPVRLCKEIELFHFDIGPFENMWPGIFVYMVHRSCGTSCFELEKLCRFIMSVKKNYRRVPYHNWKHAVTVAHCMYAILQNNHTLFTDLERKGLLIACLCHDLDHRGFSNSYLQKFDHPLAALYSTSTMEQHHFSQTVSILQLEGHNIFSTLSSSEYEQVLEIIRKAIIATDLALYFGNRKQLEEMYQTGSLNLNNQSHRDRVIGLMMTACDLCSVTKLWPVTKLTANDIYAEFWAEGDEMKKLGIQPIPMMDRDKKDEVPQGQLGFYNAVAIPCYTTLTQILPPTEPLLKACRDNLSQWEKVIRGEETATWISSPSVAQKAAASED

SMILES | Ki [nM]
COc1ccc(Cc2nc(C)nn2-c2cc([C@H]3C[C@H]3c3ccc4ncccc4n3)nc(C)n2)cc1OC (relative stereo) [Cpd 34, Cis-2-(2-(6-(5-(3,4-dimethoxybenzyl)-3-methyl-1H-1,2,4-triazol-1-yl)-2-methylpyrimidin-4-yl)cyclopropyl)-1,5-naphthyridine] | 0.068
Cc1cc(-n2nc(C)nc2C)cc([C@@H]2C[C@H]2c2nc3ccccc3n2C)n1 (relative stereo) [Cpd 108, trans-2-{2-[4-(3,5-dimethyl-1H-1,2,4-triazol-1-yl)-6-methylpyridin-2-yl]cyclopropyl}-1-methyl-1H-benzimidazole] | 14.2
Cc1nc(C)n(-c2cc([C@H]3C[C@@H]3c3nc4ccccc4n3C)nc(C(F)(F)F)n2)n1 (relative stereo) [Cpd 109, trans-2-{2-[6-(3,5-dimethyl-1H-1,2,4-triazol-1-yl)-2-(trifluoromethyl)pyrimidin-4-yl]cyclopropyl}-1-methyl-1H-benzimidazole] | 1.4
Cc1cc([C@H]2C[C@@H]2c2nc3ccccc3n2C)cc(-n2nc(C)nc2C)n1 (relative stereo) [Cpd 110, trans-2-{2-[2-(3,5-dimethyl-1H-1,2,4-triazol-1-yl)-6-methylpyridin-4-yl]cyclopropyl}-1-methyl-1H-benzimidazole] | 18.4
COc1nc([C@H]2C[C@@H]2c2nc3ccccc3n2C)cc(-n2nc(C)nc2C)n1 (relative stereo) [Cpd 111, trans-2-{2-[6-(3,5-dimethyl-1H-1,2,4-triazol-1-yl)-2-methoxypyrimidin-4-yl]cyclopropyl}-1-methyl-1H-benzimidazole] | 1.3
Cc1nc(C)n(-c2cc([C@H]3C[C@@H]3c3nc4ccccc4n3C)nc(C3CC3)n2)n1 (relative stereo) [Cpd 112, trans-2-{2-[2-cyclopropyl-6-(3,5-dimethyl-1H-1,2,4-triazol-1-yl)pyrimidin-4-yl]cyclopropyl}-1-methyl-1H-benzimidazole] | 0.68
Cc1nc(C)n(-c2cc([C@H]3C[C@@H]3c3nc4ccccc4n3C)nc(NC(C)C)n2)n1 (relative stereo) [Cpd 115, trans-4-(3,5-dimethyl-1H-1,2,4-triazol-1-yl)-6-[2-(1-methyl-1H-benzimidazol-2-yl)cyclopropyl]-N-(1-methylethyl)pyrimidin-2-amine] | 1.9
Cc1nc([C@@H]2C[C@H]2c2nc3ccccc3n2CC2CCCCO2)cc(-n2nc(C)nc2C)n1 (stereo in doubt) [Cpd 70, 2-{2-[6-(3,5-dimethyl-1H-1,2,4-triazol-1-yl)-2-methylpyrimidin-4-yl]cyclopropyl}-1-(tetrahydro-2H-pyran-2-ylmethyl)-1H-benzimidazole] | 6
Cc1nc([C@@H]2C[C@H]2c2nc3ccccc3n2C(C)C)cc(-n2nc(C)nc2C)n1 (stereo in doubt) [Cpd 71, 2-{2-[6-(3,5-dimethyl-1H-1,2,4-triazol-1-yl)-2-methylpyrimidin-4-yl]cyclopropyl}-1-(1-methylethyl)-1H-benzimidazole] | 13.6
Cc1nc([C@@H]2C[C@H]2c2nc3ccccc3n2CCN(C)C)cc(-n2nc(C)nc2C)n1 (stereo in doubt) [Cpd 72, 2-(2-{2-[6-(3,5-dimethyl-1H-1,2,4-triazol-1-yl)-2-methylpyrimidin-4-yl]cyclopropyl}-1H-benzimidazol-1-yl)-N,N-dimethylethanamine] | 14.2

Now from value to molecule:

Ki [nM] | SMILES
1.7 | Cc1nc(C)n(-c2cc([C@H]3C[C@@H]3c3nc4ccccc4n3C)nc(NC(C)(C)C)n2)n1 (relative stereo) [Cpd 118, trans-N-tert-butyl-4-(3,5-dimethyl-1H-1,2,4-triazol-1-yl)-6-[2-(1-methyl-1H-benzimidazol-2-yl)cyclopropyl]pyrimidin-2-amine]
1.2 | CCc1nc([C@H]2C[C@@H]2c2nc3ccccc3n2C)cc(-n2nc(C)nc2C)n1 (relative stereo) [Cpd 119, trans-2-{2-[6-(3,5-dimethyl-1H-1,2,4-triazol-1-yl)-2-ethylpyrimidin-4-yl]cyclopropyl}-1-methyl-1H-benzimidazole]
1.1 | Cc1nc(C)n(-c2cc([C@H]3C[C@@H]3c3nc4ccccc4n3C)nc(OCC3CC3)n2)n1 (relative stereo) [Cpd 120, trans-2-{2-[2-(cyclopropylmethoxy)-6-(3,5-dimethyl-1H-1,2,4-triazol-1-yl)pyrimidin-4-yl]cyclopropyl}-1-methyl-1H-benzimidazole]
3.1 | Cc1nc(C)n(-c2cc([C@H]3C[C@@H]3c3nc4ccccc4n3C)nc(N3CCN(C)CC3)n2)n1 (relative stereo) [Cpd 121, trans-2-{2-[6-(3,5-dimethyl-1H-1,2,4-triazol-1-yl)-2-(4-methylpiperazin-1-yl)pyrimidin-4-yl]cyclopropyl}-1-methyl-1H-benzimidazole]
1.2 | Cc1nc(C)n(-c2cc([C@H]3C[C@@H]3c3nc4ccccc4n3C)nc(OCCF)n2)n1 (relative stereo) [Cpd 122, trans-2-{2-[6-(3,5-dimethyl-1H-1,2,4-triazol-1-yl)-2-(2-fluoroethoxy)pyrimidin-4-yl]cyclopropyl}-1-methyl-1H-benzimidazole]
4.2 | Cc1nc(C)n(-c2cc([C@H]3C[C@@H]3c3nc4ccccc4n3C)nc(N)n2)n1 (relative stereo) [Cpd 123, trans-4-(3,5-dimethyl-1H-1,2,4-triazol-1-yl)-6-[2-(1-methyl-1H-benzimidazol-2-yl)cyclopropyl]pyrimidin-2-amine]
1.5 | Cc1nc(C)n(-c2cc([C@H]3C[C@@H]3c3nc4ccccc4n3C)nc(OCC(F)(F)F)n2)n1 (relative stereo) [Cpd 124, trans-2-{2-[6-(3,5-dimethyl-1H-1,2,4-triazol-1-yl)-2-(2,2,2-trifluoroethoxy)pyrimidin-4-yl]cyclopropyl}-1-methyl-1H-benzimidazole]
19 | Cc1nc(C)n(-c2cc([C@@H]3C[C@H]3c3nc4ccccc4n3C)nc(O)n2)n1 (relative stereo) [Cpd 125, trans-4-(3,5-dimethyl-1H-1,2,4-triazol-1-yl)-6-[2-(1-methyl-1H-benzimidazol-2-yl)cyclopropyl]pyrimidin-2-ol]
2 | Cc1nc(C)n(-c2cc([C@H]3C[C@@H]3c3nc4ccccc4n3C)nc(N3CCNCC3)n2)n1 (relative stereo) [Cpd 126, trans-2-{2-[6-(3,5-dimethyl-1H-1,2,4-triazol-1-yl)-2-piperazin-1-ylpyrimidin-4-yl]cyclopropyl}-1-methyl-1H-benzimidazole]
6 | Cc1nc([C@@H]2C[C@H]2c2ccc3ccccc3n2)cc(-n2nc(C)nc2C)n1 (relative stereo) [Cpd 127, trans-2-{2-[6-(3,5-dimethyl-1H-1,2,4-triazol-1-yl)-2-methylpyrimidin-4-yl]cyclopropyl}quinoline]
38 | Cc1nc(C)n(-c2cc([C@H]3C[C@@H]3c3nc4ccccc4n3C)cnn2)n1 (relative stereo) [Cpd 128, trans-2-{2-[6-(3,5-dimethyl-1H-1,2,4-triazol-1-yl)pyridazin-4-yl]cyclopropyl}-1-methyl-1H-benzimidazole]
43 | Cc1nc([C@H]2C[C@@H]2c2nc3ccccc3s2)cc(-n2nc(C)nc2C)n1 (relative stereo) [Cpd 129, trans-2-{2-[6-(3,5-dimethyl-1H-1,2,4-triazol-1-yl)-2-methylpyrimidin-4-yl]cyclopropyl}-1,3-benzothiazole]
